The values that follow are results of earlier work, collected in patent US9637723B2, “Generation of functional and durable endothelial cells from human amniotic fluid-derived cells” (Cornell University, priority 2012, dated 2017).

The target of the data set is T1, ALK5 (Homo sapiens, UniProt P36897).
T1 sequence (P36897 34-503): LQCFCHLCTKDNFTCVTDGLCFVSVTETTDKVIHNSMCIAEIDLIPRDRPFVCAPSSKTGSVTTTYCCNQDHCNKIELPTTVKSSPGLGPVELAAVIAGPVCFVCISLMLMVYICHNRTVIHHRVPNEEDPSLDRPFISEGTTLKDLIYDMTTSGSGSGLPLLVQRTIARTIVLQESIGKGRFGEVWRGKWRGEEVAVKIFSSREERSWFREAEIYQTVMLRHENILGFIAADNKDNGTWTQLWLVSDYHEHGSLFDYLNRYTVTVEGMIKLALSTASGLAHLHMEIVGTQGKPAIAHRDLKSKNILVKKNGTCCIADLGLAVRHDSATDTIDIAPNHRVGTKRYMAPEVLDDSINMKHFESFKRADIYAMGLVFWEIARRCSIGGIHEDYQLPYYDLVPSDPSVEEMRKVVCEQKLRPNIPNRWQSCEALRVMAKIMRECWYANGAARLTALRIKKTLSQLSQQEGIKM

Where [1] appears, read: as listed for compounds available through Tocris Bioscience.

Structures are written as SMILES. Where two headings read alike, the source gives them in different places.

On to `Cc1cccc(-c2nn(C(=S)Nc3ccccc3)cc2-c2ccnc3ccccc23)n1` [A 83-01, 3-(6-Methyl-2-pyridinyl)-N-phenyl-4-(4-quinolinyl)-1H-pyrazole-1-carbothioamide], for which the Function entry under setting [1] was “(Selective inhibitor of ALK5, ALK4 and ALK7)”.

`c1ccc(-c2n[nH]cc2-c2ccnc3ccccc23)nc1` [LY 364947, 4-[3-(2-Pyridinyl)-1H-pyrazol-4-yl]-quinoline]: the Function result is reported as “(Selective inhibitor of ALK5)”.

As for `Cc1cccc(-c2n[nH]cc2-c2ccc3ncccc3n2)n1` [SJN 2511, 2-(3-(6-Methylpyridine-2-yl)-1H-pyrazol-4-yl)-1,5-naphthyridine], the Function result under setting [1] is “(Selective inhibitor of ALK5)”.
